Measurements reported in EP4420677A1, “VACCINES AGAINST TERT-POSITIVE TUMORS” (Altevax, priority 2023, dated 2024).
Peptide text beside a SMILES is read from it.

What was measured:
[1] = Peptide stability in solution at pH 7.4 (HPLC peak area vs reference); type: physicochemical
[2] = as above; type: physicochemical; details: for Stability of peptides (ratio of the pick area on the indicated day/ pic area of a fresh solution of the same peptide): 7-day incubation in solution at pH7.4, - 20°C; for stability in solution (in words): in solution at physiological pH (pH 7.4)
Method: To develop a relevant vaccine, it is necessary to have a proper drug substance stability. To assess stability, the peptides were diluted at à 0,5 mg/mL in water, adjusted at pH 7.4, frozen at -20° C, and analyzed by HPLC (Hypersil GOLD C8 15cm x 4.6mm x 5µm (ThermoFisher) on the indicated day, using an elution buffer CH3CN 15%, TFA 0,1%. The pic area was compared to a reference standard.
Indeed, after 7 days at -20°C, the pic of SEQ ID NO: 4 was reduced by 53%, while SEQ ID NO: 7 was stable (> 95%) for at least 3 months at pH7.4 at -20°C, and at least 7 days at room temperature. Table 4: Stability of peptides after a 7-day incubation period in solution at pH7.4 at different temperature (ratio of the pick area on the indicated day/ pic area of a fresh solution of the same peptide)

[3] = type: binding; details: pH 7.5
Method: L-Dopa alone (0.8mg/ml) was polymerized into melanin for 2h at pH 8.5 and 60°C under agitation. The reaction mixture was then filtered on a 10kDa filter, and the retentate containing the synthetic melanin was resuspended at pH 7.5 in phosphate buffer. Peptides were then added (at the weight ratio melanin/peptide of 2) and the mixtures were incubated for 18 hours at room temperature. Tricine-SDS-PAGE analysis was performed as described in Carpentier; 2017 (op. cit.). Briefly, samples (peptide-Mel or peptide alone) were loaded on acrylamide gels. Following electrophoresis, the gels were stained with Coomassie Brilliant Blue R-250 and imaged with the ChemiDoc XRS+ system (Bio-Rad Laboratory), allowing the quantification of the free peptide in the gel. The binding of peptides to melanin was expressed as the ratio: [amount of unbound peptide in samples Peptide-Mel / amount of peptides in control samples containing peptides alone]. […] Table 3: Binding of peptides on synthetic melanin. L-Dopa (0.8mg/ml) underwent an oxidative polymerization at pH 8.5 in aerobic conditions for 2 hours at 60°C. The reaction mixture was then filtered on a 10kDa filter, and the retentate containing the synthetic melanin was resuspended at pH 7.5. […] The percentage of peptides that bound to melanin was then quantified with SPS-page analysis

[4] = Filterability and precipitation of the mixture peptide + melanin; type: physicochemical; details: mixture peptide + melanine in isotonic saline
Text: Filterability of a medical formulation on a 0.2µ filter is important to achieve a sterile solution.

[5] = 7-day incubation in solution at pH7.4, 4°C
[6] = 7-day incubation in solution at pH7.4, Room temperature

Row | SMILES | Stability of peptides (ratio of the pick area on the indicated day/ pic area of a fresh solution of the same peptide) [1, 5] [%] | Stability of peptides (ratio of the pick area on the indicated day/ pic area of a fresh solution of the same peptide) [1, 6] [%] | Stability of peptides (ratio of the pick area on the indicated day/ pic area of a fresh solution of the same peptide) [2] [%] | stability in solution (in words) [2] | percentage of peptides that bound to melanin [3] [%] | stable (remaining peptide) ([2]; at least 3 months at pH7.4 at -20°C) [%] | stable (remaining peptide) ([2]; at least 7 days at room temperature, pH7.4) [%] | time remaining in suspension [4]
1 | CC[C@H](C)[C@H](NC(=O)CNC(=O)[C@@H](NC(=O)[C@H](CO)NC(=O)[C@H](CCC(N)=O)NC(=O)[C@H](CC(C)C)NC(=O)[C@H](CCCCN)NC(=O)[C@H](CO)NC(=O)[C@H](Cc1c[nH]c2ccccc12)NC(=O)[C@@H](NC(=O)[C@H](CO)NC(=O)[C@@H](N)CCCCN)C(C)C)[C@@H](C)CC)C(=O)N[C@@H](CCCNC(=N)N)C(=O)N[C@@H](CCC(N)=O)C(=O)N[C@@H](Cc1c[nH]cn1)C(=O)O [SEQ ID NO: 1, KSVWSKLQSIGIRQH, reference compound] | 98 | 92 | 100 |  |  |  |  | 
2 | CC[C@H](C)[C@H](NC(=O)CNC(=O)[C@@H](NC(=O)[C@H](CO)NC(=O)[C@H](CCC(N)=O)NC(=O)[C@H](CC(C)C)NC(=O)[C@H](CCCCN)NC(=O)[C@H](CO)NC(=O)[C@H](Cc1c[nH]c2ccccc12)NC(=O)[C@@H](NC(=O)[C@H](CO)NC(=O)[C@H](CCCCN)NC(=O)[C@@H](N)CS)C(C)C)[C@@H](C)CC)C(=O)N[C@@H](CCCNC(=N)N)C(=O)N[C@@H](CCC(N)=O)C(=O)N[C@@H](Cc1c[nH]cn1)C(=O)O [SEQ ID NO: 4, CKSVWSKLQSIGIRQH] (H-CKSVWSKLQSIGIRQH-OH) |  |  | 47 | highly unstable | 59 |  |  | 
3 | CC[C@H](C)[C@H](NC(=O)CNC(=O)[C@@H](NC(=O)[C@H](CO)NC(=O)[C@H](CCC(N)=O)NC(=O)[C@H](CC(C)C)NC(=O)[C@H](CCCCN)NC(=O)[C@H](CO)NC(=O)[C@H](Cc1c[nH]c2ccccc12)NC(=O)[C@@H](NC(=O)[C@H](CO)NC(=O)[C@H](CCCCN)NC(=O)[C@@H](N)CCSC)C(C)C)[C@@H](C)CC)C(=O)N[C@@H](CCCNC(=N)N)C(=O)N[C@@H](CCC(N)=O)C(=O)N[C@@H](Cc1c[nH]cn1)C(=O)O [SEQ ID NO: 5, MKSVWSKLQSIGIRQH] (H-MKSVWSKLQSIGIRQH-OH) | 25 | 3 | 23 | highly unstable |  |  |  | 
4 | CC[C@H](C)[C@H](NC(=O)CNC(=O)[C@@H](NC(=O)[C@H](CO)NC(=O)[C@H](CCC(N)=O)NC(=O)[C@H](CC(C)C)NC(=O)[C@H](CCCCN)NC(=O)[C@H](CO)NC(=O)[C@H](Cc1c[nH]c2ccccc12)NC(=O)[C@@H](NC(=O)[C@H](CO)NC(=O)[C@H](CCCCN)NC(=O)[C@@H](N)CO)C(C)C)[C@@H](C)CC)C(=O)N[C@@H](CCCNC(=N)N)C(=O)N[C@@H](CCC(N)=O)C(=O)N[C@@H](Cc1c[nH]cn1)C(=O)O [SEQ ID NO: 7, SKSVWSKLQSIGIRQH] (H-SKSVWSKLQSIGIRQH-OH) | 100 | 100 | 100 | very stable |  | > 95 | > 95 | more than 18 hours
